# Results: patent publication US9506013B2 (priority 2010, dated 2016)
# Where “and” joins values, the source holds several entries; their conditions need not be identical. Identical values can stand only once.
# Experiments:
# [1] = type: physicochemical
# [2] = tested on: Staphylococcus aureas; type: cell-based
# [3] = tested on: Pseudomonas aeruginosa and Staphylococcus aureas; type: cell-based
# [4] = tested on: Pseudomonas aeruginosa; type: cell-based
Compound,% Separation 1 h [1],% Separation 24 h [1],"Adjuvant 1 h, emulsion stability, mL separation [mL]","Anionic 1 h, emulsion stability, mL separation [mL]","Adjuvant 24 h, emulsion stability, mL separation [mL]","Anionic 24 h, emulsion stability, mL separation [mL]","Nonionic 24 h, emulsion stability, mL separation [mL]","Nonionic 1 h, emulsion stability, mL separation [mL]","% Kill, 400 ppm [2] [%]","% Kill, DI water [2] [%]",Overall Rating [3],"% Kill, 400 ppm [4] [%]","% Kill, DI water [4] [%]"
C12 6EO eFAME Sulfonate [C12-10],4 C and 3.8 C,4.1 C and 4 C,0,0,0,0,0.25,,,,,,
C10 24EO eFAME Sulfonate [C10-30],3.8 C and 2.8 C,4 C and 3 C,0,0,0,0,0.25,0.25,,,,,
"COCCOC(=O)CCCCCCCCC(CCCCCCCC(=O)OCCOC)S(=O)(=O)[O-].[Na+] (centres unmarked) [Mix-61, C18 eFAME Sulfonate]",3.8 C and 3.7 C,4 C and 3.9 C,,,,,,,,,,,
C12 6EO eFAME [C12-9],,,,,,,,,3.2,36.2,good,23.2,32.6
C12 27EO eFAME Sulfonate [C12-32],3 C and 2.9 C,3.2 C,0,0,0,0,0.5,0.5,,,,,
C10 24EO eFAME [C10-11],,,,,,,,,30.9,42.5,good,21.3,28.9
C10 6EO eFAME [C10-9],,,,,,,,,23.4,38.4,good,29.1,37.2
"CCC(CCCCCCCCC(=O)OCCOC)S(=O)(=O)[O-].[Na+] (centres unmarked) [C12-33, C12 eFAME Sulfonate]",3.2 C and 3.9 C,4 C and 4.1 C,0,0,0,0,0.25,0.25,,,,,
C12 27EO eFAME [C12-11],,,,,,,,,36.2,42.7,good,30.1,34.9
